Assay results: ChEMBL document CHEMBL5113392, “Novel hybrid pyrrolidinedione-thiazolidinones as potential anticancer agents: Synthesis and biological evaluation” (Eur J Med Chem, 2022)
Active and inactive are the calls of the source. The calls are words filed in the database; no cut-off is given here.

Columns and labels:
HCT-116 [1] = test: Anticancer activity against human HCT-116 cells assessed as lethality incubated for 48 hrs by SRB assay; assay type: functional; conditions: read-out: LC50 (the source's name)
K562 = test: Anticancer activity against human K562 cells assessed as total growth inhibition incubated for 48 hrs by SRB assay; assay type: functional
Hs-578T = test: Anticancer activity against human Hs-578T cells assessed as total growth inhibition incubated for 48 hrs by SRB assay; assay type: functional
MOLT-4 [2] = test: Anticancer activity against human MOLT-4 cells assessed as lethality incubated for 48 hrs by SRB assay; assay type: functional; conditions: read-out: LC50 (the source's name)
NCI/ADR-RES = test: Anticancer activity against human NCI/ADR-RES cells assessed as total growth inhibition incubated for 48 hrs by SRB assay; assay type: functional
OVCAR-5 [3] = test: Anticancer activity against human OVCAR-5 cells assessed as growth inhibition incubated for 48 hrs by SRB assay; assay type: functional
SR = test: Anticancer activity against human SR cells assessed as lethality incubated for 48 hrs by SRB assay; assay type: functional; conditions: read-out: LC50 (the source's name)
Lymphocyte = test: Induction of morphological changes in mitogen activated human peripheral blood lymphocytes assessed as increase in number of single cells incubated for 24 hrs by Hoechst 33258 and propidium iodide staining based fluorescence microscopy; assay type: toxicity, cell-based
HOP-92 = test: Anticancer activity against human HOP-92 cells assessed as total growth inhibition incubated for 48 hrs by SRB assay; assay type: functional
MOLT-4 [4] = test: Anticancer activity against human MOLT-4 cells assessed as growth inhibition incubated for 48 hrs by SRB assay; assay type: functional
HCC 2998 = test: Anticancer activity against human HCC 2998 cells assessed as total growth inhibition incubated for 48 hrs by SRB assay; assay type: functional
Jurkat = test: Induction of morphological changes in human Jurkat cells assessed as chromatin fragmentation incubated for 24 hrs by Hoechst 33258 and propidium iodide staining based fluorescence microscopy; assay type: functional, cell-based
SK-OV-3 [5] = test: Anticancer activity against human SK-OV-3 cells assessed as lethality incubated for 48 hrs by SRB assay; assay type: functional; conditions: read-out: LC50 (the source's name)
HCT-116 [6] = test: Anticancer activity against human HCT-116 cells assessed as cell growth inhibition incubated for 72 hrs by MTT assay; assay type: functional
CAKI-1 = test: Anticancer activity against human CAKI-1 cells assessed as lethality incubated for 48 hrs by SRB assay; assay type: functional; conditions: read-out: LC50 (the source's name)
PC-3 = test: Anticancer activity against human PC-3 cells assessed as lethality incubated for 48 hrs by SRB assay; assay type: functional; conditions: read-out: LC50 (the source's name)
MDA-MB-468 = test: Anticancer activity against human MDA-MB-468 cells assessed as growth inhibition incubated for 48 hrs by SRB assay; assay type: functional
786-0 = test: Anticancer activity against human 786-0 cells assessed as growth inhibition incubated for 48 hrs by SRB assay; assay type: functional
MCF7 = test: Anticancer activity against human MCF7 cells assessed as cell growth inhibition incubated for 72 hrs by MTT assay; assay type: functional
UACC-62 [7] = test: Anticancer activity against human UACC-62 cells assessed as growth inhibition incubated for 48 hrs by SRB assay; assay type: functional
UACC-62 [8] = test: Anticancer activity against human UACC-62 cells assessed as total growth inhibition incubated for 48 hrs by SRB assay; assay type: functional
UACC-257 = test: Anticancer activity against human UACC-257 cells assessed as growth inhibition incubated for 48 hrs by SRB assay; assay type: functional
BT-549 [9] = test: Anticancer activity against human BT-549 cells assessed as lethality incubated for 48 hrs by SRB assay; assay type: functional; conditions: read-out: LC50 (the source's name)
EKVX [10] = test: Anticancer activity against human EKVX cells assessed as growth inhibition incubated for 48 hrs by SRB assay; assay type: functional
RXF 393 = test: Anticancer activity against human RXF 393 cells assessed as inhibition of cell growth at 10 uM incubated for 48 hrs by SRB assay; assay type: functional; conditions: RXF 393, 48 h, values are per cent of control
A549 [11] = test: Anticancer activity against human A549 cells assessed as cell growth inhibition incubated for 72 hrs by MTT assay; assay type: functional
A549 [12] = test: Anticancer activity against human A549 cells assessed as lethality incubated for 48 hrs by SRB assay; assay type: functional; conditions: read-out: LC50 (the source's name)
NCI-H23 = test: Anticancer activity against human NCI-H23 cells assessed as growth inhibition incubated for 48 hrs by SRB assay; assay type: functional
NCI-H522 = test: Anticancer activity against human NCI-H522 cells assessed as lethality incubated for 48 hrs by SRB assay; assay type: functional; conditions: read-out: LC50 (the source's name)
EKVX [13] = test: Anticancer activity against human EKVX cells assessed as total growth inhibition incubated for 48 hrs by SRB assay; assay type: functional
U-251 [14] = test: Anticancer activity against human U-251 cells assessed as cell growth inhibition incubated for 72 hrs by MTT assay; assay type: functional
U-251 [15] = test: Anticancer activity against human U-251 cells assessed as lethality incubated for 48 hrs by SRB assay; assay type: functional; conditions: read-out: LC50 (the source's name)
SK-MEL-2 = test: Anticancer activity against human SK-MEL-2 cells assessed as growth inhibition incubated for 48 hrs by SRB assay; assay type: functional
LOX IMVI = test: Anticancer activity against human LOX IMVI cells assessed as inhibition of cell growth at 10 uM incubated for 48 hrs by SRB assay; values are per cent of control
[16] = Selectivity index, ratio of GI50 for human HaCaT cells to GI50 for human SK-OV-3 cells; assay type: toxicity; conditions: HaCaT cells versus SK-OV-3 cells, read-out: RatioGI50
OVCAR-5 [17] = test: Anticancer activity against human OVCAR-5 cells assessed as total growth inhibition incubated for 48 hrs by SRB assay; assay type: functional
A549 [18] = test: Anticancer activity against human A549 cells assessed as total growth inhibition incubated for 48 hrs by SRB assay; assay type: functional
KM12 = test: Anticancer activity against human KM12 cells assessed as lethality incubated for 48 hrs by SRB assay; assay type: functional; conditions: read-out: LC50 (the source's name)
NCI-H460 [19] = test: Anticancer activity against human NCI-H460 cells assessed as total growth inhibition incubated for 48 hrs by SRB assay; assay type: functional
HCT-15 [20] = test: Anticancer activity against human HCT-15 cells assessed as total growth inhibition incubated for 48 hrs by SRB assay; assay type: functional
U-251 [21] = test: Anticancer activity against human U-251 cells assessed as total growth inhibition incubated for 48 hrs by SRB assay; assay type: functional
HCT-15 [22] = test: Anticancer activity against human HCT-15 cells assessed as growth inhibition incubated for 48 hrs by SRB assay; assay type: functional
SW-620 = test: Anticancer activity against human SW-620 cells assessed as total growth inhibition incubated for 48 hrs by SRB assay; assay type: functional
NCI-H460 [23] = test: Anticancer activity against human NCI-H460 cells assessed as growth inhibition incubated for 48 hrs by SRB assay; assay type: functional
DU-145 = test: Anticancer activity against human DU-145 cells assessed as lethality incubated for 48 hrs by SRB assay; assay type: functional; conditions: read-out: LC50 (the source's name)
T47D = test: Anticancer activity against human T47D cells assessed as total growth inhibition incubated for 48 hrs by SRB assay; assay type: functional
SK-OV-3 [24] = test: Anticancer activity against human SK-OV-3 cells assessed as total growth inhibition incubated for 48 hrs by SRB assay; assay type: functional
[25] = Cytotoxicity against human HaCaT cells assessed as cell growth inhibition incubated for 72 hrs by MTT assay; assay type: toxicity, cell-based
BT-549 [26] = test: Anticancer activity against human BT-549 cells assessed as total growth inhibition incubated for 48 hrs by SRB assay; assay type: functional

`O=C1CC(N2C(=O)/C(=C/C(Cl)=C/c3ccc([N+](=O)[O-])cc3)SC2=S)C(=O)N1c1ccc(O)cc1` (stereo not drawn) showed a CC50 (HCT-116 [1]) of 5.22 µM, a TGI (K562) of 9.55 µM and a TGI (Hs-578T) of 12.6 µM. It also gave a CC50 (MOLT-4 [2]) greater than 100 µM, a TGI (NCI/ADR-RES) of 12.1 µM and a GI50 (OVCAR-5 [3]) of 1.91 µM. The CC50 (SR) was greater than 100 µM, the Activity (Lymphocyte) was “Toxic” and the TGI (HOP-92) was 3.72 µM. For the same compound, the GI50 (MOLT-4 [4]) was 0.534 µM, the TGI (HCC 2998) was 2.92 µM and the Activity (Jurkat) was “Active”. It also gave a CC50 (SK-OV-3 [5]) of 32 µM, a GI50 (HCT-116 [6]) of 4.52 µM and a CC50 (CAKI-1) of 5.12 µM. It also gave a CC50 (PC-3) of 8.6 µM, a GI50 (MDA-MB-468) of 1.87 µM and a GI50 (786-0) of 1.23 µM. For the same compound, the GI50 (MCF7) was 4 µM, the GI50 (UACC-62 [7]) was 1.67 µM and the TGI (UACC-62 [8]) was 3.38 µM. The GI50 (UACC-257) was 2.48 µM, the CC50 (BT-549 [9]) was 8.72 µM and the GI50 (EKVX [10]) was 3.25 µM. For the same compound, the growth, % of control at 10 µM (RXF 393) was -70.5%, the GI50 (A549 [11]) was 7.25 µM and the CC50 (A549 [12]) was 50.8 µM. For the same compound, the GI50 (NCI-H23) was 1.56 µM, the CC50 (NCI-H522) was 9.65 µM and the TGI (EKVX [13]) was 11.7 µM. It also gave a GI50 (U-251 [14]) of 1.1 µM, a CC50 (U-251 [15]) of 6.53 µM and a GI50 (SK-MEL-2) of 2.74 µM. It also gave a growth percent at 10 µM (LOX IMVI) of -83.7%, a selectivity ratio [16] of 0.74 and a TGI (OVCAR-5 [17]) of 3.7 µM. The TGI (A549 [18]) was 11.4 µM, the CC50 (KM12) was 15.8 µM and the TGI (NCI-H460 [19]) was 6.75 µM. For the same compound, the TGI (HCT-15 [20]) was 1.95 µM, the TGI (U-251 [21]) was 2.21 µM and the GI50 (HCT-15 [22]) was 0.472 µM. For the same compound, the TGI (SW-620) was 2.28 µM, the GI50 (NCI-H460 [23]) was 2.55 µM and the CC50 (DU-145) was 6.62 µM. The TGI (T47D) was 15.8 µM, the TGI (SK-OV-3 [24]) was 9.26 µM and the GI50 at 72 h [25] was 73.6 µM. It also gave a TGI (BT-549 [26]) of 4.21 µM.
Compound `O=C1CC(N2C(=O)/C(=C/C(Cl)=C/c3ccc([N+](=O)[O-])cc3)SC2=S)C(=O)N1c1ccc(Cl)cc1` (stereo not drawn) has a CC50 (HCT-116 [1]) of 6.85 µM, a TGI (K562) of 11.6 µM and a TGI (Hs-578T) greater than 100 µM. For the same compound, the CC50 (MOLT-4 [2]) was 62.6 µM, the TGI (NCI/ADR-RES) was 6.19 µM and the GI50 (OVCAR-5 [3]) was 2.04 µM. For the same compound, the CC50 (SR) was 57.6 µM, the Activity (Lymphocyte) was “Toxic” and the TGI (HOP-92) was 6.79 µM. The GI50 (MOLT-4 [4]) was 0.596 µM, the TGI (HCC 2998) was 3.03 µM and the Activity (Jurkat) was “Active”. It also gave a CC50 (SK-OV-3 [5]) greater than 100 µM, a GI50 (HCT-116 [6]) of 9.18 µM and a CC50 (CAKI-1) of 9.52 µM. For the same compound, the CC50 (PC-3) was greater than 100 µM, the GI50 (MDA-MB-468) was 1.33 µM and the GI50 (786-0) was 1.63 µM. It also gave a GI50 (MCF7) of 7.95 µM, a GI50 (UACC-62 [7]) of 1.77 µM and a TGI (UACC-62 [8]) of 4.3 µM. The GI50 (UACC-257) was 2.92 µM, the CC50 (BT-549 [9]) was 8 µM and the GI50 (EKVX [10]) was 3.11 µM. It also gave a growth, % of control at 10 µM (RXF 393) of -64.1%, a GI50 (A549 [11]) of 63.9 µM and a CC50 (A549 [12]) greater than 100 µM. For the same compound, the GI50 (NCI-H23) was 1.64 µM, the CC50 (NCI-H522) was 14.1 µM and the TGI (EKVX [13]) was greater than 100 µM. The GI50 (U-251 [14]) was 8.93 µM, the CC50 (U-251 [15]) was 14.1 µM and the GI50 (SK-MEL-2) was 3.12 µM. It also gave a growth percent at 10 µM (LOX IMVI) of -71.7%, a selectivity ratio [16] of 1.52 and a TGI (OVCAR-5 [17]) of 4.46 µM. It also gave a TGI (A549 [18]) greater than 100 µM, a CC50 (KM12) greater than 100 µM and a TGI (NCI-H460 [19]) greater than 100 µM. It also gave a TGI (HCT-15 [20]) of 8.2 µM, a TGI (U-251 [21]) of 2.47 µM and a GI50 (HCT-15 [22]) of 0.599 µM. For the same compound, the TGI (SW-620) was 3.9 µM, the GI50 (NCI-H460 [23]) was 3.3 µM and the CC50 (DU-145) was greater than 100 µM. For the same compound, the TGI (T47D) was 6.34 µM, the TGI (SK-OV-3 [24]) was greater than 100 µM and the GI50 at 72 h [25] was greater than 100 µM. For the same compound, the TGI (BT-549 [26]) was 3.74 µM.
